Values of other authors as cited in patent US7122567B2, “Heterocyclic amide derivatives having glycogen phosphorylase inhibitory activity” (AstraZeneca AB, priority 2002, dated 2006).

Assays:
[1] = conscious dogs, following a glucagon challenge
[2] = test system: hepatocytes
[3] = db/db and ob/ob mice following treatment

SMILES | arterial plasma glucose [1] | hepatic glucose output [1] | glucagon stimulated glycogenolysis [2] | glucose output [2] | plasma glucose concentration [3]
CCN1C(C)=C(C(=O)OC(C)C)C(c2ccccc2Cl)C2=C1COC2=O (centres unmarked) [Bay R 3401] | reduced significantly | reduced significantly | – | – | –
CN(C)C(=O)[C@H](O)[C@H](Cc1ccccc1)NC(=O)c1cc2cc(Cl)ccc2[nH]1 [CP91149] | – | – | reduce | reduce | reduced, in a dose related manner
O=C(N[C@@H](Cc1ccc(F)cc1)C(=O)N1CCC(O)CC1)c1cc2cc(Cl)ccc2[nH]1 [CP320626] | – | – | reduce | reduce | reduced, in a dose related manner
